This is an account of results in paper PMC12655351, “Synthesis and Anticancer Activity Evaluation of New 5-((5-Nitrofuran-2-yl)allylidene)-2-thioxo-4-thiazolidinones” (Pharmaceuticals, 2025).

The subject of data set [1] is caspase-9 in MDA-MB-231 cells. Briefly: FLICA caspase-9 flow cytometry. Format: cell-based, human. The note with it: MDA-MB-231, 24 h, concentration not given. How it is done: To further analyze the compounds’ effects on the intrinsic pathway of the process of programmed cell death, it was decided to assess the expression of initiator caspase-9 on MCF-7 and MDA-MB-231 cell lines after 24 h of treatment using the flow cytometry method. Caspase-9 is an initiator caspase that directly activates executive caspase-3; as such, it has a significant effect on apoptosis. […] For the MDA-MB-231 line, the results were even more prominent, with every tested compound and concentration displaying a notable increase in cells with active caspase-9.
To determine the effects of the novel compounds on the caspase-9 activity, the FLICA Caspase-9 Assay Kit was applied (ImmunoChemistry Technologies, Bloomington, MN, USA). MCF-7 and MDA-MB-231 cells were seeded on 6-well plates (5 × 10^5 cells per well) and incubated for 24 h. Next, they were treated with tested compounds 2b, 12b, and 14b in a concentration of 1 and 5 µM for the MCF-7 cell line and 5 and 10 µM for the MDA-MB-231 cell line and the reference drug, doxorubicin hydrochloride, in a concentration of 1 and 5 µM for both lines for 24 h. […] Prepared samples were evaluated by a BD FACSCanto II flow cytometer (Becton Dickinson Biosciences, San Jose, CA, USA). For each sample, 1 × 10^4 events were analyzed. […]

In data set [2] the test system is Bax protein in MDA-MB-231 cells. Briefly: anti-Bax antibody flow cytometry. The format is cell-based, human. The note with it: MDA-MB-231, concentration not stated (5 or 10 µM), 24 h. How it is done:
(§1) The effect of the tested compounds on the intrinsic mitochondrial pathway of programmed cell death was further assessed. For this purpose, the concentration of the proapoptotic Bax protein from the Bcl-2 family was examined. The concentration of this protein was analyzed in breast cancer cells after treatment with novel compounds at concentrations of 1 and 5 µM for the MCF-7 line and 5 and 10 µM for the MDA-MB-231 line.
(§2) An anti-Bax FITC-conjugated antibody was applied to evaluate the effect of tested compounds on the concentration of Bax protein in this experiment. First, MCF-7 and MDA-MB-231 cells were seeded into 6-well plates at 5 × 10^5 cells per well. Test compounds 2b, 12b, and 14b were then added at concentrations of 1 and 5 µM and 5 and 10 µM for MCF-7 and MDA-MB-231, respectively. The concentration of doxorubicin as a reference compound was 1 and 5 µM for both lines. After 24 h of incubation, cells were harvested, centrifuged, washed with 1 mL of PBS, and then fixed with 4% paraformaldehyde for 15 min at RT. After removal of the paraformaldehyde, cells were washed with PBS, then resuspended in 0.5 mL of cold 90% methanol, and frozen at −20 °C. […] The prepared samples were read immediately using the BD FACS Canto II flow cytometer (Becton Dickinson Biosciences, San Jose, CA, USA).

In another data set the test system is IGROV1. The note with it: human, 48 h.
A further data set deals with MDA-MB-468. The following applies: human, 48 h.
The subject of the next data set is U251. The following applies: human, 48 h.
Data set [3] has as its system cytochrome C in MDA-MB-231 cells. Briefly: cytochrome C ELISA. The following applies: MDA-MB-231, 10 μM, 24 h. The format is cell-based, human. How it is done:
(§3) The influence of the examined compounds on the level of cytochrome C, one of the crucial proteins of the intrinsic pathway of programmed cell death, was assessed. This protein is released into the cytoplasm from the mitochondrial intermembrane space as a result of the decrease in mitochondrial membrane potential. […] The most significant result was reported for compound 14b at a concentration of 5 μM in the MCF-7 cell line and 10 µM in the MDA-MB-231 cell line, where the concentration of cytochrome C was 9.54 ng/mL and 15.26 ng/mL, respectively (Figure 10).
(§4) Using a SimpleStep ELISA kit (Abcam, Cambridge, UK), we determined the levels of cytochrome C and caspase-3 in cells’ lysates with 2b, 12b, and 14b (1 and 5 μM for the MCF-7 cell line and 5 and 10 μM for the MDA-MB-231) and doxorubicin in concentrations of 1 and 5 μM for both lines after 24 h incubation. Assays were performed according to the manufacturer’s protocols.

For data set [4], the system named is cytochrome C in MCF-7 cells. Briefly: cytochrome C ELISA. Format: cell-based, human. The note with it: MCF-7, 5 μM, 24 h. How it is done: as §3, §4
The next data set relates to caspase-3 in MCF-7 cells. Briefly: caspase-3 ELISA. The format is cell-based, human. The following applies: MCF-7, 1 μM, 24 h. As for the experimental part: To confirm the activity of the caspase pathway, an effector caspase-3 was assayed on MCF-7 and MDA-MB-231 cell lines after 24 h of treatment using the ELISA method. Novel 4-thiazolidinone derivatives were tested in concentrations of 1 and 5 μM for the MCF-7 cell line and 5 and 10 μM for the MDA-MB-231 cell line.
as §4

Data set [5] relates to Bax protein in MCF-7 cells. Briefly: anti-Bax antibody flow cytometry. The format is cell-based, human. The note with it: MCF-7, 5 μM, 24 h. How it is done: as §1, §2

With `CC(C(=O)O)N1C(=O)/C(=C/C=C/c2ccc([N+](=O)[O-])o2)SC1=S` (stereo not drawn) [2b, 2-((Z)-5-((E)-3-(5-Nitrofuran-2-yl)allylidene)-4-oxo-2-thioxothiazolidin-3-yl)propanoic acid], the “cells with active caspase-9” value in data set [1] stood at 83.95%. In addition, the Bax-positive cell population in [2] was determined as 26.33%.
`O=C(O)CCCN1C(=O)/C(=C/C=C/c2ccc([N+](=O)[O-])o2)SC1=S` [13b, 4-((Z)-5-((E)-3-(5-Nitrofuran-2-yl)allylidene)-4-oxo-2-thioxothiazolidin-3-yl)butanoic acid] gave a CC50 in the data set on IGROV1 of 7.77 µM.
Regarding `O=C(O)CCCCCN1C(=O)/C(=C/C=C/c2ccc([N+](=O)[O-])o2)SC1=S` [14b, 6-((Z)-5-((E)-3-(5-nitrofuran-2-yl)allylidene)-4-oxo-2-thioxothiazolidin-3-yl)hexanoic acid], the CC50 in the data set with MDA-MB-468 was found to be 4.29 µM; in the data set with U251, 5.02 µM. For the same molecule, the results for the “concentration of cytochrome C” value in data set [3] and in data set [4] were 15.26 ng/mL and 9.54 ng/mL, respectively. The “change of caspase-3 concentration” value in the data set with caspase-3 in MCF-7 cells is “statistically significant result”. Further, in data set [5], the Bax-positive cell population came out at 14.67%.
